# According to US5667764A, “Compounds, compositions and methods for binding bio-affecting substances to surface membranes of bio-particles” (Zynaxis, Inc., priority 1992, dated 1997):
# Where two headings read alike, the source gives them in different places.
# How the values were obtained:
# myointimal thickening = details: animal models; cited from earlier work
# [1] = Description: The HPLC system used comprised a Waters Model 600E solvent delivery system with W600E gradient controller, U6K injector and Model 990 photodiode array detector. Chromatography conditions were as follows: Column: Waters Nova-Pak (phenyl, 4 μm, 3.9 mm×15 cm); Mobile phase: Solvent A=Water:Methanol:Acetonitrile:PIC A reagent (Waters) (395:25:80:4), Solvent B=Water:Methanol: Acetonitrile:PIC A reagent (225:25:250:4), Solvent C=Methanol:Water:PIC A reagent (490:15:4). Gradient conditions: 100% (A) to 60%:40% (A:B) over 20 minutes then to 100% (C) over 10 minutes followed by 100% (C) for 40 minutes. Flow rate: 2 mL/min. Detection: photodiode array from 240-575 nm.
# The rate of acid hydrolysis of hydrazone conjugate (19) to produce 7-N-(5-oxopentanoyl) deacetyl colchicine was studied by HPLC at 3 different pH's.
# Buffer solutions were prepared according to the procedures described by Gomori, "Methods in Enzymology", 16:138 (1955). HPLC conditions and retention times were the same as described above.
# Compound solutions to be studied were prepared by adding 50 μl of hydrazone conjugate solution (1 mg/ml of methanol) to a screw capped vial (1 ml) containing citrate phosphate buffer (200 μl) of the desired pH. The vials were kept closed and the solutions were analysed by HPLC (350 nm detection) for conjugate (19) remaining and 7-N-(5-oxopentanoyl) deacetyl colchicine produced at 24 h and 48 h. Each hplc injection was […].
# A10 cells = assay: Antiproliferative activity on A10 cells after one 10 minute application; assay type: cell-based, rat; details: for Cell count: 10 μM, 10 minute application
# Procedure: To determine the antiproliferative action of the compounds of invention, in vitro studies were performed using A10 cells, a clonal cell line originally derived from the thoracic aorta of embryonic rats, that proliferate as myoblasts and develop into cells which phenotypically resemble smooth muscle cells (B. Kimes and B. Brandt, Exptl. Cell Res. 98:349 (1976). Typically, twelve-well plates were seeded with 2500-10,000 A10 cells/cm^2 in Dulbecco's Modified Eagles Medium (DMEM) with 10% fetal calf serum (FCS) and allowed to adhere and stabilize for 24 hours at 37° C. Test substances were then prepared in the required concentrations in appropriate cell binding media and, after aspirating the plating medium, applied to the individual wells at 37° C. for a period of only 10 minutes. The treatments were then aspirated, the wells washed 4 times with non-treatment containing medium and then placed in non-treatment containing DMEM with 10% FCS for the duration of the study. At various times after treatment application, triplicate wells were aspirated, the aspirate saved, and the wells treated with 0.25 ml of 0.25% trypsin to release the adherent cells. The enzymatic action of trypsin on the cells was stopped by addition of excess protein (1.75 ml DMEM+10% FCS), the aspirate returned to the wells, and an aliquot of the resultant cell suspension counted in a Coulter Counter (Model ZM with Sampling Stand II). Cell count was normalized to cells per square centimeter of growing area (surface area of well bottom).
# [2] = tested on: rabbit red blood cell ghosts; assay: Binding of anticoagulant conjugate to rabbit red blood cell ghosts; details: 24 h, 37° C.
# Procedure: Ghosts were then washed extensively and placed in phosphate buffered saline with lmM EDTA and 5% BSA for 24 h at 37° C. Samples were agitated and a 50 μl aliquot removed from each sample and placed in 200 μl of Triton X-100® in a microtiter plate well (representingtotal suspension fluorescence). The original samples were centrifuged for 10 minutes and a 50 μl sample of the ghost supernatant removed and placed in 200 μl of Triton X-100® (representing free fluorescence in the aqueous phase only). The fluorescence of all samples was determined on a fluorometric microtiter plate reader. Bound fluorescence was determined by subtraction of free from total after correction for background fluorescence from unstained ghosts; the percent free and bound fluorescence was determined by dividing the bound and free fluorescence by total fluorescence, respectively and multiplying by 100.
# [3] = tested on: lumenal surface of the femoral arteries; assay: Retention at intravascular site; assay type: in vivo, rabbit
# Procedure: To determine whether the compounds of the invention will remain at an intravascular site once applied experiments were performed wherein ^125 I-substituted lipophilic cyanine, prepared as described in Example 2 (compound 12, Reaction Scheme 2) was applied to the lumenal surface of the femoral arteries of anesthetized rabbits. The femoral artery was surgically isolated and a small, proximal side branch was cannulated with a short length of PE10 tubing. A 1 cm arterial segment surrounding the side branch was occluded and 20-50μl of a solution containing ^125 I-substituted compound 12 was administered through the cannula to the occluded section and allowed to remain for 5-10 min. The ^125 I-substituted compound was then withdrawn along with the cannula, the side branch was permanently tied, the femoral artery occlusion removed to allow the return of blood flow, and the femoral incision was closed. ^125 I-radioactivity was then monitored at selected times over the next 3 weeks with a Ludium Model 2200 Scaler Ratemeter and a Model 44-17 2 inch crystal with windows optimized for the detection of ^125 I.
# [4] = tested on: rabbit hind limb (femoral arterial bed), substance P receptors; assay: Vascular response in rabbit blood perfused hind limb preparation; assay type: in vivo
# Description: The in vivo receptor pharmacology of the compound produced in Example 3d., above, was studied in a rabbit blood perfused hind limb preparation similar to that described by U. Forstermann et al., J. Pharmacol. Exp. Ther., 234: 1055-61 (1987). Blood from a pentobarbital anesthetized, artificially ventilated rabbit was withdrawn from a cannulated carotid artery, passed within medical grade silastic tubing through a constant speed roller pump, and directed to a cannulated femoral artery. Distal perfusion pressure in the femoral arterial bed was measured (in mm Hg) by means of a micropressure transducer (Millar) passed down the perfusion tubing so as to lie just beyond the tip of the femoral catheter. Initially, pump speed was adjusted so that distal perfusion pressure approximated systemic mean arterial blood pressure after which blood flow was kept constant for the remainder of each experiment. Changes in resistance then varied directly as distal perfusion pressure in a manner similar to that described by Ohm's law, such that:
# Vascular Resistance=Perfusion Pressure Blood Flow
# Thus, by maintaining blood flow constant for the duration of each experiment, changes in distal perfusion pressure directly reflected vascular resistance such that a decrease in pressure signifies vasodilation and an increase in pressure signifies vasoconstriction. Direct injection into the perfusion circuit could thus be used to assess the vascular biology and pharmacology of substances believed to exert actions on in vivo vascular smooth muscle tone.
# [5] = labeling 10 μM (compound 7), 20 μM (conjugate, FITC-heparin)
compound,measurement,setting,value
CN(C/C=C/C#CC(C)(C)C)Cc1cccc2ccccc12 [Terbinafine],Myointimal thickening,myointimal thickening,reduction of myointimal thickening
CC(C)[C@@H]1NC(=O)[C@H](CCCCN)NC(=O)[C@@H](Cc2c[nH]c3ccccc23)NC(=O)[C@H](Cc2ccc(O)cc2)NC(=O)[C@@H](NC(=O)[C@H](N)Cc2ccc3ccccc3c2)CSSC[C@@H](C(=O)N[C@H](C(N)=O)[C@@H](C)O)NC1=O [Angiopeptin],Myointimal thickening,myointimal thickening,reduction of myointimal thickening
"CCCCCCCCCCCCCCCCCCCCCCN1C(=CC=CC2=[N+](CCCCCCCCCCCCCC)c3ccc(CNC(=O)CCCC(=O)NN=CCCCC(=O)N[C@H]4CCc5cc(OC)c(OC)c(OC)c5-c5ccc(OC)c(=O)cc54)cc3C2(C)C)C(C)(C)c2ccccc21 [Compound 19, 7-N(5-oxopentanoyl) deacetyl colchicine Lipophilic Cyanine Hydrazone Conjugate]",Free colchicine hydrolysis product detected by HPLC,"[1]; pH 4.21, 5.74, 7.35","the expected aidehyde, compound 18"
same,Cleavage of (19) to produce (18),"[1]; pH 4.21, 24 hours",78%
same,Cleavage of (19) to produce (18),"[1]; pH 4.21, 48 hours",100%
same,Cleavage of (19) to produce (18),"[1]; pH 5.74, 24 hours",45%
same,Cleavage of (19) to produce (18),"[1]; pH 5.74, 48 hours",100%
same,Cleavage of (19) to produce (18),"[1]; pH 7.35, 24 hours",36%
same,Cleavage of (19) to produce (18),"[1]; pH 7.35, 48 hours",77%
same,Cell count,A10 cells; day 0,2291.12 cells per square centimeter
same,Cell count,A10 cells; day 1,2625.33 cells per square centimeter
same,Cell count,A10 cells; day 2,2369.45 cells per square centimeter
same,Cell count,A10 cells; day 3,2206.27 cells per square centimeter
same,Cell count,A10 cells; day 6,8800.26 cells per square centimeter
same,Cell count,A10 cells; day 7,10895.65 cells per square centimeter
same,Cell-associated fluorescence,A10 cells; flow cytometry,significant cell-associated fluorescence
"CCCCCCCCCCCCCCCCCCCCCC[N+]1=C(C=CC=C2N(CCCCCCCCCCCCCC)c3ccc(CNC=O)cc3C2(C)C)C(C)(C)c2ccccc21 [Compound 7, 1'-docosanyl-5(N-formylaminomethyl)-1-tetradecyl-3,3,3',3'tetramethylindocarbocyanine iodide]",% Bound,[2]; 5% BSA,94.96%
same,% Free,[2]; 5% BSA,5.04%
same,"Fluorescence intensity, supernatant",[2]; [5],73.69
same,"Fluorescence intensity, suspension",[2]; [5],1439.00
interferon-gamma,Myointimal thickening,myointimal thickening,reduction of myointimal thickening
"CCCCCCCCCCCCCCCCCCCCCCN1C(=CC=CC2=[N+](CCCCCCCCCCCCCC)c3ccccc3C2(C)C)C(C)(C)c2cc([125I])ccc21 [Compound 12, N-docosanyl-N'-tetradecyl-5-iodo-3,3,3',3'-tetramethylindocarbocyanine chloride]",Applied material (radioactivity) remaining within the artery,"[3]; after first 24 hour, mean±sem, n=4",34.0±10.9%
same,Elimination half-life after the first 24 hours,[3]; after first 24 hours,365.8 ± 69.4 h
same,Initial elimination half-life,[3]; first 24 hour,18.5 ± 6.96 h
same,Time detectable after application,"[3]; rabbit, in vivo",at least 3 weeks
"CC(C)NCC(O)c1ccc(O)c(O)c1 (stereo not drawn) [isoproterenol, reference compound]","Effect of antagonist [D-Pro^2,D-Trp^7.9]-substance P on the response",[4]; during infusion of antagonist,not antagonized by the SP antagonist
same,Hind-limb perfusion pressure response,"[4]; local injection, no antagonist",dose related decrease in perfusion pressure
